Laboratory results: patent US20250241944A1 (CALIFORNIA INSTITUTE OF TECHNOLOGY, priority 2023, published 2025)
“Also recorded” adds a separate entry of the source. Where two headings read alike, the source gives them in different places.

Key:
[1] = tested on: RPA (Riverside Pseudomonas aeruginosa) planktonic cultures; assay: In vitro planktonic drug treatment, viable cell counts; type: cell-based; conditions: 24 h, ciprofloxacin 10 μg/mL, sodium chlorate 10 mM
[2] = tested on: RPA Anar strain (AnarGHJI); conditions: 24 h
Method: (§1) All experiments used Luria-Bertani (LB; Difco) as the growth medium, supplemented with KNO3 as specified. Aerobic liquid cultures were incubated at 37° C. with shaking at 250 RPM. Anaerobic work was conducted in an anaerobic glove box with a 95% N2-5% H2 atmosphere, and anaerobic cultures were incubated at 37° C.
For in vitro planktonic drug treatment studies, overnight RPA cultures were grown aerobically in LB broth supplemented with 40 mM KNO3. […] Cell resuspensions were added to 96-well plates (150 μL per well), and one 96-well plate was incubated statically (not shaking) at 37° C. at ambient oxygen, while a duplicate 96-well plate was incubated statically at 37° C. under anoxia (anaerobic glove box). Drug treatments were incubated for 24 h, after which cultures were serially diluted for viable cell counts. Viable cell counts were performed by serially diluting samples in phosphate-buffered saline (PBS). […] After incubation at 37° C., colonies were counted to quantify colony-forming units (CFU) per milliliter for each culture. Percent survival was calculated for each condition by dividing CFU/mL values from a drug treated sample by the average CFU/mL value from control (no drug) samples and multiplying by 100. […]
For in vitro biofilm drug studies, agar block biofilm assays (ABBAs) were used. […] Viable cell counts and percent survival were calculated for ABBA samples as described above.

[3] = tested on: RPA-infected chronic wounds
Method: A diabetic mouse model (db/db−/−) of chronic wounds that mimics chronic wounds in humans was used to investigate wound healing.
Wounds were treated daily between 10 and 40 days postwounding.
The quality of wound healing in treated mice was characterized by performing histological and immunofluorescence analyses on day 40 wounds (FIG. 18 Panel A).
To distinguish between and visualize the distribution of collagen I and collagen III in the granulation tissue, the wounds were also stained with Picrosirius Red (PSR). […] Collagen IV immunolabeling was used to show whether basal lamina under the epidermis was present, an important indicator of proper connectivity of the epithelium with the underlying dermis. […] Keratin 14/16 is a cytokeratin found in proliferating keratinocytes of the epidermis and is observed in the cytoplasm surrounding the nucleus.
Blood vessel development during wound healing is another indicator of proper healing. The number of microvessels present in the granulation tissue was quantified by immunolabeling the wound tissue with a-smooth muscle actin (aSMA), a protein that is present in the cells surrounding blood vessels.

[4] = tested on: RPA-infected chronic wounds; conditions: diabetic mouse model, reference [227]; cited from earlier work
[5] = mammals lack Nar; cited from earlier work
[6] = tested on: P. aeruginosa biofilms; conditions: via Nar activity, reference [32]; cited from earlier work
[7] = humans; cited from earlier work
[8] = tested on: WT Pseudomonas aeruginosa UCBPP-PA14; assay: Antibiotic treatment assay with viable plate counts (percent survival / log killing); conditions: for log killing: OD500=2, chlorate 10 mM, tobramycin 31.25 μg/mL
[9] = tested on: RPA aggregate biofilms; conditions: ABBA, 24 h; final 10 μg/mL ciprofloxacin, 10 mM sodium chlorate
Method: as §1
For in vitro biofilm drug studies, agar block biofilm assays (ABBAs) were used. Briefly, to set up ABBA, overnight RPA cultures were diluted to OD500=0.001 into cooled molten agar (44° C.) composed of LB with 5 mM KNO3 and 1% agar. Before the agar solidified, 500 μL of the cell-agar suspension was added to 2-mL Eppendorf tubes, after which samples were allowed to solidify. Eppendorf tubes were incubated at 37° C. for 24 h to allow cells to grow as aggregate biofilms suspended within the agar medium. After this growth incubation, ABBA samples were washed twice with 200 μL of PBS to remove cell growth that was not suspended within the agar. […] Drug treatments were incubated for 24 h at 37° C. To determine viable cell counts, ABBA samples were first homogenized by adding 300 μL of PBS to each sample and homogenizing on speed 3 with a Bio-Gen PRO200 Homogenizer (PRO Scientific).

[10] = five drugs of the study, hypoxic cultures
[11] = hypoxic conditions (static), 24 h, ciprofloxacin 1 μg/mL, ceftazidime 10 μg/mL
[12] = 24 h, hypoxic vs oxic conditions

Compound	susceptibility of planktonic cultures (in words) ([1]; anoxic (anaerobic glove box))	susceptibility of planktonic cultures (in words) ([1]; oxic (static, ambient oxygen))	toxicity / killing of P. aeruginosa cultures (in words) ([8]; anoxic conditions, 24 h)	capacity for synergy across drug classes [8, 10]	log killing [8, 11] [log]	toxicity / killing of P. aeruginosa cultures (in words) ([8]; hypoxic conditions, 24 h)	toxicity / killing of P. aeruginosa cultures (in words) ([8]; oxic conditions, 24 h)	O2-dependence of efficacy (hypoxic compared to oxic) [8]	synergy of chlorate-antibiotic combination ([8]; hypoxic conditions, 24 h)	O2-dependence of efficacy (hypoxic compared to oxic) [8, 12]	further results
[O-][Cl+2]([O-])O [chlorate, sodium chlorate]	highly susceptible	highly tolerant	most effective; also recorded: some toxicity	wide-ranging synergistic interactions; also recorded: broad capacity for synergy	0.2	little-to-no killing; also recorded: remain viable	nontoxic	–	–	–	susceptibility of Nar-lacking strain (in words) [2]: highly resistant; effectiveness at promoting wound healing, comparison between treatments ([3]; day 40): as effective as ciprofloxacin; PSR staining: collagen I and collagen III in the granulation tissue ([3]; day 40 healed wounds): staining of both collagen I and collagen III; collagen IV immunolabeling: basement membrane under the epithelium ([3]; day 40 healed wounds): formed a basement membrane; aSMA immunolabeling: microvessels in the granulation tissue ([3]; day 40 wounds): showed microvessels; quality of the wound tissue ([3]; day 40 wounds, histology): significantly improved; healing of P. aeruginosa-infected chronic wounds by topical treatment [4]: supports the healing; toxicity against mammals [5]: low toxicity; killing of O2-limited, antibiotic-tolerant biofilm populations [6]: kills; estimated lethal oral dose [7]: 20-35 grams; log killing ([8]; anoxic conditions (anaerobic glove box), 24 h): ~2.5 log; toxicity / killing of P. aeruginosa cultures (in words) ([8]; anoxic conditions, 24 h, listed as Chlorate): most toxic; toxicity / killing of P. aeruginosa cultures (in words) ([8]; hypoxic conditions, 24 h, listed as Chlorate): nontoxic
O=C(O)c1cn(C2CC2)c2cc(N3CCNCC3)c(F)cc2c1=O [ciprofloxacin]	highly susceptible	highly susceptible	–	–	~1.5	–	–	substantially less toxic	synergizing	–	killing / susceptibility of aggregate biofilms (in words) [9]: susceptible to ciprofloxacin but show greater survival than planktonic cells
NC[C@H]1O[C@H](O[C@H]2[C@H](O)[C@@H](O[C@H]3O[C@H](CO)[C@@H](O)[C@H](N)[C@H]3O)[C@H](N)C[C@@H]2N)[C@H](N)C[C@@H]1O [tobramycin]	–	–	some toxicity	–	–	–	most effective	–	–	substantially less toxic	capacity for synergy across drug classes [8]: do not; synergy of chlorate-antibiotic combination [8]: synergizing; toxicity / killing of P. aeruginosa cultures (in words) ([8]; oxic conditions, 24 h, listed as Tobramycin): below our detection limit
CC(C)(O/N=C(\C(=O)N[C@@H]1C(=O)N2C(C(=O)[O-])=C(C[n+]3ccccc3)CS[C@H]12)c1csc(N)n1)C(=O)O [ceftazidime]	–	–	–	do not	–	completely resistant; also recorded: remain viable	completely resistant	does not exhibit O2-dependent efficacy	synergizing	–	reduction of the effective (lethal, toxic) ceftazidime dose by chlorate addition [8]: > 100 fold; ceftazidime concentrations to which P. aeruginosa is resistant ([8]; hypoxic cultures, 24 h, ceftazidime alone): ≤ 1,000 μg/mL
colistin	–	–	–	wide-ranging synergistic interactions; also recorded: broad capacity for synergy	–	–	–	–	synergizing	only marginally less effective at killing hypoxic cultures	P. aeruginosa viability after colistin combined with tobramycin, ciprofloxacin or ceftazidime [8]: below our detection limit; synergy in antibiotic-antibiotic combinations ([8]; hypoxic conditions, 24 h): displays synergistic interactions; also recorded: synergized
